Test results taken from patent publication US20070050862A1, “Promoter and methods of use in plants” (priority 2005, published 2007).

Legend:
Format in all cases: in vivo, Arabidopsis thaliana
AtCel5-GUS expression = assay: GUS activity in roots of transgenic AtCel5-GUS seedlings (fluorometric MUG assay); conditions: for Relative activity (GUS activity relative to controls): overlaid 24 hours with 10 ml of 100 μM ABA, fitted slope ± standard error
Protocol: To investigate the influence of indole-3-acetic acid (IAA; Sigma) plants were grown under liquid conditions as well as vertical plates. In all experiments the roots were separated from the shoots, frozen in liquid Nitrogen, and stored at −80° C. prior to analysis. […] Seeds were cold treated for 4 days at 4° C. to promote even germination. Liquid cultures were placed on a rotary shaker at 120 rpm and grown under 24 hours of fluorescent light at room temperature. […] Plates were transferred to the light incubator for 10 days and set in a vertical position. The inhibitory effect of NPA on root gravity perception was examined by observing the direction of root growth in plates set in a horizontal position.
For analysis of the effects of ABA, a 100 mM ABA stock solution was prepared in 100% ethanol (13.22 mg ABA/0.5 ml) and then diluted 1000× in water. Seeds expressing AtCel5-GUS were plated on agar basal medium and grown for 7 and 10 days. Under sterile conditions, plates with seedlings were opened and 10 ml of 100 μM ABA was added to bathe the seedlings. Plates were then set horizontally in the light incubator for 24 hours.
Quantification of GUS activity was performed according to the method of Jefferson et al. (1987) using the fluorogenic substrate MUG (4-methyl-umbelliferyl-β-D-glucuronide). Only root tissue was used to analyze GUS activity. Tissues were ground in MUG extraction buffer and centrifuged for 5 minutes, at maximal speed in a microfuge, to clear the supernatant. An aliquot of crude extract containing the same number of root tips per treatment was mixed with the MUG reaction buffer containing 2 mM MUG and incubated at 37° C. Five or six aliquots were taken from the enzyme reaction at 60 minute intervals. At each time point, the reaction was stopped with 0.2 M Na2CO3. Fluorescence was determined using a one-channel fluorometer (Turner Designs Picofluor) with an excitation range of 365-395 nm and emission wavelengths of greater than 430 nm. The fitted linear slope (±standard error) of fluorescence vs. incubation time was used as a relative measure of GUS content for comparison of controls and treatments.

AtCel5 transcript = assay: RT-PCR of AtCel5 transcript in roots, normalized to KOR; conditions: 10 μM ACC
Protocol: For comparative RT-PCR analysis of roots exposed to various treatments, or the analysis of expression of the AtCel5 duplicon, a two-step RT-PCR was performed using the Retroscript kit (Ambion, Austin, Tex.). Total root RNA was pretreated with DNAse prior to reverse transcription (Ambion DNA-free kit). The first strand cDNA was prepared with oligo dT primers and used as template for PCR reactions. RT-PCR was normalized using Actin-11 or KOR as internal standards. […] Each cycle included a denaturation and an extension step at 94° C. for 45 seconds, and at 72° C. for 70 seconds, respectively. The annealing step was carried out for 30 seconds at the temperature optimal for each primer pair: • AtCel5 (set II), 58° C.; KOR, 62° C.; Actin-11, 60° C.; AtCel3, 65° C.

[1] = system: AtCel5-GUS expression in the root cap; assay: Histochemical GUS staining of AtCel5-GUS seedlings
Protocol: For analysis of ethylene regulation, seeds expressing AtCel5-GUS were plated on agar containing half-strength MS medium supplemented with 10 μM of 1 aminocyclo-propane-1 carboxylic acid (ACC; Sigma), made from a stock (1000×) prepared in water. […]
Plant tissues were collected in 90% acetone and incubated on ice for at least 10 min. Tissues were rinsed with 50 mM NaPO4 pH 7.2, […] and […] and then placed in staining solution (2 mM 5-bromo-4-chloro-3-indolyl-β-D-[…] [X-Glu; Sigma] in rinse solution), vacuum infiltrated for 10 minutes and finally incubated at 37° C. for 2 hours or overnight. Seedlings were examined using a microscope and photographed with a Digital Nikon 990 Camera.

SMILES: CC1=CC(=O)CC(C)(C)C1(O)/C=C/C(C)=C\C(=O)O (stereo not drawn) [ABA, abscissic acid]
- AtCel5 expression after ABA treatment (AtCel5-GUS expression; 24 hour ABA treatment, both experiments, vs control): reduced by almost half
- Relative activity (GUS activity relative to controls) (AtCel5-GUS expression; Experiment number 1: seedlings 7 days post-germination): 0.53 ± 0.04
- Relative activity (GUS activity relative to controls) (AtCel5-GUS expression; Experiment number 2: seedlings 10 days post germination): 0.42 ± 0.06

SMILES: O=C(O)c1ccccc1C(=O)Nc1cccc2ccccc12 [NPA, N-1-naphthylphthalamic acid]
- Quantitative GUS activity in roots compared to controls (AtCel5-GUS expression; agar plates supplemented with 1 μM NPA): large decrease

SMILES: O=C(O)Cc1c[nH]c2ccccc12 [IAA, indole-3-acetic acid]
- Quantitative GUS activity in roots compared to controls (AtCel5-GUS expression; agar plates supplemented with 10 μM IAA): large decrease
- GUS activity compared to controls (AtCel5-GUS expression; seedlings grown on liquid MS containing IAA (50 μM)): greatly reduced

SMILES: NC1(C(=O)O)CC1 [ACC, 1 aminocyclo-propane-1 carboxylic acid]
- AtCel5 transcript, control vs treated roots (AtCel5 transcript): no significant changes
- AtCel5-GUS expression once growth stalled ([1]; after 10 days on ACC plates, staining reappeared on fresh media without ACC): disappeared
- GUS staining in the root cap ([1]; seedlings grown for 10 days on MS plates containing 10 μM ACC): still observed
